Measurements: US20020091095A1, “Modulation of Fas and FasL expression” (priority 1999, published 2002)

Assays:
[1] = tested on: EAE; experiment: EAE in (SJL/J×PL/J) F1 mice induced with myelin basic protein; assay type: in vivo
Procedure: Female (SJL/J×PL/J) F1 mice are injected subcutaneously in both femoral regions with an emulsion containing 0.5 mg of myelin basic protein (MBP) mixed with complete Freund's adjuvant. After 24 h, 400 ng of Bordetella pertussis toxin is administered intraperitoneally. On the day of onset (day 0), group 1 mice receive saline, group 2 mice receive 1, 10 or 100 mg/kg of SEQ. ID NO:5, group 3 mice receive 1, 10 or 100 mg/kg of SEQ. ID NO:16, group 4 mice receive 1, 10 or 100 mg/kg of SEQ. ID NO:17, group 5 mice receive 1, 10 or 100 mg/kg of SEQ. ID NO: 18, group 6 mice receive anti-Fas antibodies, group 7 mice receive 1, 10 or 100 mg/kg of SEQ. ID NO:5 +anti-Fas antibodies, group 8 mice receive 1, 10 or 100 mg/kg of SEQ. ID NO:16 +anti-Fas antibodies, group 9 receive 1, 10 or 100 mg/kg of SEQ. ID NO:17 +anti-Fas antibodies, group 10 mice receive 1, 10 or 100 mg/kg of SEQ. ID NO: 18 +anti-Fas antibodies for 3 days by intracistemal administration (20 μg/day). In these different groups, anti-Fas antibodies are administered at any dose in the range of about 0.003 to about 0.3 mg/kg. […] The efficacy of the SEQ. ID NO:5, the SEQ. ID NO: 16 and the SEQ. ID NO: 17 is dose-dependent.

[2] = tested on: FasL; experiment: FasL expression at the cell surface by flow cytometry, MCF-7 cells; assay type: cell-based, human; conditions: MCF-7 breast cancer cells, 100 μg/ml sequence, 48 h, treated vs control cells
Procedure: (§1) Cancer cells and PBMCs were seeded in 6 well flat-bottom microplates and were maintained at 37° C. in a 5% CO2 atmosphere. Unless stated otherwise, 2×10^5 cells/ml were incubated for 48 h with 0 μg/ml (control) or 100 μg/ml ([…]) (treated) of the sequences.
(§2) Fas and FasL expression were measured by flow cytometry using anti-Fas FITC-conjugated monoclonal antibodies and anti-FasL PE-conjugated monoclonal antibodies in a FACScalibur Flow Cytometer (Becton Dickinson, San Jose, Calif., USA) using the CELLQuest program (Becton Dickinson).
(§3) Results are expressed as percentage (%) increase in the expression of Fas and of FasL measured on treated cells compared to control cells.
(§4) MCF-7 human breast cancer cells are a caspase-3 negative, estrogen-dependent human solid tumor model.

[3] = tested on: FasL; experiment: FasL expression at the cell surface by flow cytometry, LNCaP cells; assay type: cell-based, human; conditions: LNCaP prostate cancer cells, 100 μg/ml sequence, 48 h, treated vs control cells
Procedure: as §1, §2, §3
(§5) LNCaP prostate cancer cells are a TGF-beta 1 receptor negative, […], metastatic human solid tumor model.

[4] = tested on: Fas; experiment: Fas expression at the cell surface by flow cytometry, OVCAR-3 cells; assay type: cell-based, human; conditions: OVCAR-3 ovarian cancer cells, 100 μg/ml sequence, 48 h, treated vs control cells
Procedure: as §1, §2, §3
(§6) OVCAR-3 ovarian cancer cells are a p53 mutated, p21/waf-1/Cip deleted, metastatic human solid tumor model.

[5] = tested on: Fas; experiment: Fas expression at the cell surface by flow cytometry, T-24 cells; assay type: cell-based, human; conditions: T-24 bladder cancer cells, 100 μg/ml sequence, 48 h, treated vs control cells
Procedure: as §1, §2, §3
(§7) T-24 bladder cancer cells are a p53 mutated human cell line T-24 cells (1.0×10^5 cells/ml) were incubated with the 6 base sequences shown in Table 4.

[6] = tested on: FasL; experiment: FasL expression at the cell surface by flow cytometry, UMUC-3 cells; assay type: cell-based, human; conditions: UMUC-3 bladder cancer cells, 100 μg/ml sequence, 48 h, treated vs control cells
Procedure: as §1, §2, §3
UMUC-3 bladder cancer cells are a P-glycoprotein overexpressing human cell line.

[7] = tested on: FasL; experiment: FasL expression at the cell surface by flow cytometry, T-24 cells; assay type: cell-based, human; conditions: T-24 bladder cancer cells, 100 μg/ml sequence, 48 h, treated vs control cells
Procedure: as §1, §2, §3, §7

[8] = tested on: Fas; experiment: Fas expression at the cell surface by flow cytometry, SK-OV-3 cells; assay type: cell-based, human; conditions: SK-OV-3 ovarian cancer cells, 100 μg/ml sequence, 48 h, treated vs control cells
Procedure: as §1, §2, §3
(§8) SK-OV-3 ovarian cancer cells are a p53 mutated, p21/waf-1/Cip deleted, p15^ink4B,p16^ink4 deleted metastatic human solid tumor model.

[9] = tested on: Fas; experiment: Fas expression at the cell surface by flow cytometry, LNCaP cells; assay type: cell-based, human; conditions: LNCaP prostate cancer cells, 100 μg/ml sequence, 48 h, treated vs control cells
Procedure: as §1, §2, §3, §5

[10] = tested on: Fas; experiment: Fas expression at the cell surface by flow cytometry, MCF-7 cells; assay type: cell-based, human; conditions: MCF-7 breast cancer cells, 100 μg/ml sequence, 48 h, treated vs control cells
Procedure: as §1, §2, §3, §4

[11] = tested on: FasL; experiment: FasL expression at the cell surface by flow cytometry, OVCAR-3 cells; assay type: cell-based, human; conditions: OVCAR-3 ovarian cancer cells, 100 μg/ml sequence, 48 h, treated vs control cells
Procedure: as §1, §2, §3, §6

[12] = tested on: Fas; experiment: Fas expression at the cell surface by flow cytometry, Jurkat cells; assay type: cell-based; conditions: Jurkat human leukemia T cells, 100 μg/ml sequence, 48 h, treated vs control cells
Procedure: as §1, §2, §3
(§9) Jurkat human leukemia T cells are an atypical multi-drug resistant human suspension tumor cell model.

[13] = tested on: FasL; experiment: FasL expression at the cell surface by flow cytometry, SK-OV-3 cells; assay type: cell-based, human; conditions: SK-OV-3 ovarian cancer cells, 100 μg/ml sequence, 48 h, treated vs control cells
Procedure: as §1, §2, §3, §8

[14] = tested on: EL-4 murine T lymphoma cells; experiment: EL-4 murine T lymphoma implanted in C57/BL6 lpr/lpr mice; assay type: in vivo
Procedure: EL-4 murine T lymphoma cells are implanted into C57/BL6 lpr/lpr (Fas negative mice). The mice are divided into 30 groups of 10 mice. On day 0, group 1 mice receive saline, group 2 mice receive 1, 10 or 100 mg/kg of SEQ. ID NO:5, group 3 mice receive 1, 10 or 100 mg/kg of SEQ. ID NO:16, group 4 receive 1, 10 or 100 mg/kg of SEQ. ID NO:17, group 5 mice receive 1, 10 or 100 mg/kg of SEQ. ID NO: 18, group 6 mice receive anti-Fas antibodies, group 7 mice receive 1, 10 or 100 mg/kg of SEQ. ID NO:5 +anti-Fas antibodies, group 8 mice receive 1, 10 or 100 mg/kg of SEQ. ID NO: 16 +anti-Fas antibodies, group 9 receive 1, 10 or 100 mg/kg of SEQ. ID NO:17 +anti-Fas antibodies, group 10 mice receive 1, 10 or 100 mg/kg of SEQ. ID NO:18 +anti-Fas antibodies. In these different groups, anti-Fas antibodies are administered at any dose in the range of about 0.003 to about 0.3 mg/kg. […] The efficacy of the SEQ. ID NO:5, the SEQ. ID NO: 16 and the SEQ. ID NO: 17 is dose-dependent.

[15] = tested on: FasL; experiment: FasL expression at the cell surface by flow cytometry, Jurkat cells; assay type: cell-based; conditions: Jurkat human leukemia T cells, 100 μg/ml sequence, 48 h, treated vs control cells
Procedure: as §1, §2, §3, §9

## GGGTGG [SEQ ID NO:5]
[1]; 1, 10 or 100 mg/kg
  efficacy, dose dependence: dose-dependent
[1]; sequence 1, 10 or 100 mg/kg + anti-Fas antibodies, for 3 days
  progression of EAE: least progression of EAE
[2]
  % INCREASE FasL: 81%
[3]
  % INCREASE FasL: −1%
[4]
  % INCREASE Fas: 43%
[5]
  % INCREASE Fas: 80%
[6]
  % INCREASE FasL: 143%
[7]
  % INCREASE FasL: 13%
[8]
  % INCREASE Fas: 3%
[9]
  % INCREASE Fas: 15%
[10]
  % INCREASE Fas: 93%
[11]
  % INCREASE FasL: 9%
[12]
  % INCREASE Fas: 150%
[13]
  % INCREASE FasL: −31%
[14]; 1, 10 or 100 mg/kg
  efficacy, dose dependence: dose-dependent
[14]; sequence 1, 10 or 100 mg/kg + anti-Fas antibodies, vs all other groups
  tumor mass: least tumor mass
[14]; single agent (sequence 1, 10 or 100 mg/kg, or anti-Fas antibodies) vs group 1 (saline)
  tumor mass: less tumor mass
[15]
  % INCREASE FasL: 145%
